Laboratory results taken from US20260007624A1, “COMPOSITION FOR AMELIORATING OR TREATING CANCER CACHEXIA […] LACTATE AS ACTIVE INGREDIENT” (METIMEDI PHARMACEUTICALS CO., LTD., priority 2022, published 2026).
Where “and” joins values, the source holds several entries; their conditions need not be identical. Identical values can stand only once.

Experiments:
[1] = tested on: metastatic colorectal cancer refractory to standard therapy; test: Phase II clinical trial of calcium lactate (cachexia, tumor response, survival, safety); type: in vivo, patients; parameters: key to Overall tumor response: SD means that tumor growth has stopped; PD means that the tumor has increased by 20% or more
Method: The clinical study was a phase II clinical trial targeting patients with metastatic colorectal cancer refractory to standard therapy.
Twenty-two patients were enrolled, and 16 completed the trial (see Table 1).
The administration method was subcutaneous injection, and the administration dose was 100 mg/day. One cycle consisted of 4 weeks of treatment with 5 days of I.P. administration subcutaneously once daily followed by 2 days of rest.
Tumor assessment was performed every 2 cycles compared to baseline.
The clinical outcomes were the primary outcome of disease control rate, and the secondary outcomes were overall survival, progression-free survival, and safety. Body weight was measured 1 month after the start of administration and expressed as the increase or decrease in body weight before and after administration. Tumor response was performed with a CT scan 2 months after the start of administration and expressed as the increase or decrease in tumor size before and after administration. SD means that tumor growth has stopped, and PD means that the tumor has increased by 20% or more.
BMI and Weight TO were measured at the screening visit, and Weight T1mo and SLD changes in the target lesion were measured 1 and 2 months after IP administration, respectively. SLD is an abbreviation for sum of longest diameters. SD and PD are abbreviations for stable disease and progressive disease, respectively.

[2] = tested on: colon cancer cell line HCT-116; test: Cytotoxicity assay, colon cancer cells; type: cell-based; details: HCT-116, 48 hours, FIG. 2 lower panel
Method: 5×10^3 of normal colon fibroblast cell line CCD-18Co or colon cancer cell line HCT-116 were cultured in a 96-well plate at 37° C., 5% CO2. Incubator and observed under a microscope after 48 hours.

[3] = Tissue pharmacokinetics (lactate concentration in muscle and tumor tissue); type: in vivo, Balb/c nude mice; details: HCT-116 tumor mice, 20 mg/kg S.C.
Method: Balb/c nude mice were obtained and 1×10^6 HCT-116 was implanted subcutaneously to grow tumors. […] Each obtained tissue was analyzed for changes in lactate concentration over time using a lactate analysis kit.

[4] = tested on: Hif-1α; test: Western blot of Hif-1α expression in cancer cells; type: cell-based; details: for Hif-1α expression: hypoxia 1% O2, FIG. 4
Method: Then, Hif-1α antibody was diluted in TBST and attached to the protein on the membrane, washed with TBST, and treated with secondary antibody, and the band results were confirmed using X-ray film or Gel doc equipment.

[5] = 8 patients with weight loss including cachexia
[6] = of 16 patients who completed the trial

SMILES: CC(O)C(=O)[O-].CC(O)C(=O)[O-].[Ca+2] (stereo not drawn) [calcium lactate]
- efficacy of preventing patients from cachexia ([1]; 2 out of 16 patients progressed to cancerous cachexia): 87.5%
- median overall survival ([1]; 8 patients with maintained or increased weight): 8 months
- median increase in tumor size [1, 5]: 17%
- median overall survival [1, 5]: 4.15 months
- median increase in tumor size ([1]; 8 patients with weight maintenance or increase): 9.5%
- disease control rate ([1]; 16 patients): 68.75%
- drug efficacy for tumor growth arrest ([1]; 16 patients, metastatic stage): 68.8%
- Overall survival ([1]; individual patient): 2.4 months and 4.4 months and 6 months and 14.9 months and 7.6 months and 2.7 months and 3.6 months and 7.9 months and 23 months and 8.1 months and 5.1 months and 6.3 months and 16.7 months and 25.8 months
- SLD change at target lesions ([1]; individual patient, CT scan 2 months after start, RECIST 1.1): 12.5% and 10.8% and 15.7% and 12.6% and 9.1% and 34.7% and 17.7% and 29.0% and −2.9% and 129.2% and 3.3% and 15.6% and 10.0% and 18.4% and 2.2% and 6.2%
- Overall tumor response ([1]; individual patient, RECIST 1.1): SD (11×) and PD (PD means that the tumor has increased by 20% or more) (5×)
- Weight change ([1]; individual patient, screening to 1 month of treatment, 100 mg/day subcutaneous): 1.4% (3×) and −4.6% and 1.1% and 6.0% and −1.3% and −3.6% and 0.0% and −6.7% and −3.4% and 3.4% and −4.9% and 10.6% and −0.8%
- Cachexia, % of patients [1, 6]: 12.5%
- Cachexia, number of patients [1, 6]: 2
- Weight gain (maintained or increased weight), number of patients [1, 6]: 8
- Weight gain, % of patients [1, 6]: 50.0%
- Weight loss (not corresponding to cachexia), number of patients [1, 6]: 6
- Weight loss, % of patients [1, 6]: 37.5%
- number of patients with stable disease ([1]; out of 16 patients): 11
- DLT (dose limiting toxicity) ([1]; phase 2 clinical trials): Non-DLT
- effect on survival in colorectal cancer cells [2]: cancer cell death can be observed
- concentration of lactate in muscle tissue [3]: no change
- concentration of lactate in tumor tissues ([3]; 2 hours after administration): increases
- Hif-1α expression ([4]; AsPC-1 (pancreatic cancer)): reduced
- Hif-1α expression ([4]; H1975 (lung cancer)): reduced
- Hif-1α expression ([4]; HCT-116 (colon cancer)): reduced
- Hif-1α expression ([4]; MDA-MB-231 (breast cancer)): reduced
- expression of Hif-1α protein ([4]; colon cancer cells, hypoxia, FIG. 3 upper panel): reduced
